Results reported in patent publication US4198349A, “Benzylideneaniline derivatives” (William H. Rorer, Inc., priority 1978, dated 1980).

Each compound was assayed on croton oil-induced inflammation in the mouse's ear (assay: Topical anti-inflammatory activity after immediate application in croton oil-induced inflammation in the mouse's ear). Settings: 4 h, Topical Dose 4 mg/ear, immediate application with 2% croton oil, ears taken four hours after application, read-out: % Inhibition of Ear Edema.
Format: in vivo, mouse (female CF1)
Procedure: Testing of the anti-inflammatory effects of the compounds of Formula I were performed utilizing a modification of the experimental techniques described by Tonelli, G., Thibault, L. and Ringler, L., "A Bioassay for the Concomitant Assessment of the Anti-phlogistic and Thymolytic Activities of Topically Applied Corticoids": Endocrinology 77, 625 (1965) and Roszkowski, A. P., Rooks, W. H. II, Tomolonis, A. J., and Miller, L. M., "Anti-inflammatory and Analgetic Properties of the d-2-(6-Methoxy-2'-Naphthyl)Propionic Acid (Naproxen)". J. Pharm. Exp. Ther., 179, 114 (1971).
The topical anti-inflammatory activity of the test compounds is measured by immediate application at the time of induction of croton oil-induced inflammation in the mouse's ear.
0.1 ml. of a solution containing 2% croton oil (Amend Drug and Chemical Co., Irvington, N.J.), 73% diethyl ether, U.S.P. (Corco Chemical Corp., Fairless Hills, Pa.), 20% pyridine (J. T. Baker Chemical Co., Phillipsburg, Pa.) and 5% distilled water was applied to the left ear of female CF1 mice, in groups of six, during light ether anesthesia.
Four hours after application of either the irritant solution or the irritant solution containing the test compound, the mice were sacrificed by cervical dislocation, both ears were amputated and circular sections, one from each ear, were removed with a No. 4 cork borer (7 mm, i.d.). Each ear section was then weighed. The increase in weight due to edema formation caused by the croton oil in the treated ear and the reduction of that edema caused by drug treatment was determined by subtracting the weight of the untreated right ear section from that of the treated left ear section.
The anti-inflammatory effects of the test compounds expressed as percent inhibition are calculated by: [formula]
TOPICAL ANTI-INFLAMMATORY ACTIVITY AFTER
IMMEDIATE APPLICATION IN CROTON OIL-INDUCED
INFLAMMATION IN THE MOUSE'S EAR

Row | SMILES | inhibition in vivo at 4 mg/ear
1 | Oc1ccccc1C=Nc1ccc(F)cc1 [N-(o-hydroxybenzylidene)-p-fluoroaniline] | 21.5%
2 | Clc1ccc(N=Cc2c(Cl)cccc2Cl)cc1 [N-(2,6-dichlorobenzylidene)-p-chloroaniline] | 9.1%
3 | Cc1ccc(N=Cc2ccc(-c3ccccc3)cc2)cc1 [N-(p-phenylbenzylidene)-p-methylaniline] | 27%
4 | Cc1c(Cl)cccc1N=Cc1ccc(Cl)cc1 [N-(p-chlorobenzylidene)-2-methyl-3-chloroaniline] | 46.8%
5 | Clc1cc(C=Nc2ccc(Br)cc2)ccc1C1CCCCC1 [N-(3-chloro-4-cyclohexylbenzylidene)-p-bromoaniline] | 1.5%
6 | Clc1ccc(N=Cc2ccccc2)cc1 [N-benzylidene-p-chloroaniline] | 29.3%
7 | Fc1ccc(N=Cc2ccccc2Cl)cc1 [N-(o-chlorobenzylidene)-p-fluoroaniline] | 24.3%
8 | Brc1ccc(N=Cc2ccc(-c3ccccc3)cc2)cc1 [N-(p-phenylbenzylidene)-p-bromoaniline] | 25.5%
9 | Cc1ccc(N=Cc2ccccc2)cc1 [N-benzylidene-p-toluidine] | 45%
10 | Clc1ccc(C=Nc2cccc(Cl)c2)cc1 [N-(p-chlorobenzylidene)-m-chloroaniline] | 23.6%
11 | Fc1ccc(N=Cc2ccc(Cl)cc2)c(C(F)(F)F)c1 [N-(p-chlorobenzylidene)-4-fluoro-2-trifluoromethylaniline] | 36.5%
12 | Cc1ccc(N=Cc2ccc(Cl)cc2)cc1 [N-(p-chlorobenzylidene)-p-methylaniline] | 16.2%
13 | Fc1ccc(N=Cc2ccc(Cl)cc2)cc1 [N-(p-chlorobenzylidene)-p-fluoroaniline] | 45.2%
14 | Fc1ccc(N=Cc2ccc(Br)cc2)c(C(F)(F)F)c1 [N-(p-bromobenzylidene)-4-fluoro-2-trifluoromethylaniline] | 18.8%
15 | Clc1cc(Br)ccc1N=Cc1ccc(-c2ccccc2)cc1 [N-(p-phenylbenzylidene)-2-chloro-4-bromoaniline] | 33.9%
16 | Cc1c(Cl)cccc1N=Cc1ccccc1Cl [N-(o-chlorobenzylidene)-3-chloro-2-methylaniline] | 44.3%

Row | SMILES | inhibition in vivo at 4 mg/ear
17 | Fc1ccc(C=Nc2ccccc2C(F)(F)F)cc1 [N-(p-fluorobenzylidene)-o-trifluoromethylaniline] | 21.3%
18 | Cc1cc(F)ccc1N=Cc1ccccc1 [N-benzylidene-2-methyl-4-fluoroaniline] | 26.8%
19 | Fc1cccc(N=Cc2ccc(Cl)cc2)c1 [N-(p-chlorobenzylidene)-m-fluoroaniline] | 10.8%
20 | Cc1cccc(N=Cc2ccccc2O)c1C [N-(o-hydroxybenzylidene)-2,3-dimethylaniline] | 27.8%
21 | C(=Nc1ccccc1)c1ccccc1 [N-benzylideneaniline, N-Benzylideneaniline] | 4.9%
22 | Clc1cccc(N=Cc2ccccc2Cl)c1 [N-(o-chlorobenzylidene)-m-chloroaniline] | 4%
23 | Oc1ccccc1C=Nc1cccc(C(F)(F)F)c1 [N-(o-hydroxybenzylidene)-m-(α,α,α-trifluorotoluidine)] | 21.6%
24 | Cc1c(Cl)cccc1N=Cc1ccccc1O [N-(o-hydroxybenzylidene)-2-methyl-3-chloroaniline] | 38.5%
25 | CCc1ccc(N=Cc2ccccc2)cc1 [N-benzylidene-p-ethylaniline] | 30.5%
26 | Fc1ccc(N=Cc2ccc(C3CCCCC3)c(Cl)c2)cc1 [N-(3-chloro-4-cyclohexylbenzylidene)-p-fluoroaniline] | 6.8%
27 | C(=Nc1ccccc1)c1ccc(-c2ccccc2)cc1 [N-(p-phenylbenzylidene)-aniline, N-(p-phenylbenzylidene)aniline] | 24.7%
28 | Oc1ccccc1C=Nc1ccccc1 [N-(o-hydroxybenzylidene)-aniline, N-(o-hydroxybenzylidene)aniline] | 5.3%
29 | Fc1ccc(N=Cc2cccc(Cl)c2)cc1 [N-(m-chlorobenzylidene)-p-fluoroaniline] | 9.1%
30 | Cc1ccccc1N=Cc1ccccc1 [N-benzylidene-o-toluidine] | 5.5%
31 | Cc1cc(Cl)ccc1N=Cc1ccc(Cl)cc1 [N-(p-chlorobenzylidene)-2-methyl-4-chloroaniline] | 23%
